These results are taken from patent US11130750B2, “Calcium channel inhibitors” (Cavion, Inc., priority 2017, dated 2021).

Molecules are shown by their SMILES.

By IC50 is commonly meant the concentration at which inhibition is half-maximal. Read a high IC50 as weaker potency. For orientation: EC50 means the concentration giving half of the maximal effect. Read a low EC50 as greater potency.

What all share (type): cell-based
The target in one experiment is Cav3.3 (Homo sapiens (Human), UniProt Q9P0X4). The experiment in a line: Whole-cell voltage clamp recording, HEK293 cells expressing T-type channel Cav3.3. To be noted: holding potential −100 mV, depolarized to −30 mV for 100 ms, room temperature. Here is the method:
(§1) Whole-cell voltage clamp recordings were performed on cultured HEK293 cells expressing T-type channels (encoded by Cav3.1, Cav3.2, or Cav3.3 channels). All experiments were performed at room temperature. Whole-cell currents were recorded using a MultiClamp 700B amplifier and analyzed offline with pCLAMP10.4 software (Molecular Devices, LLC, Sunnyvale Calif., USA). […] Test compounds were usually applied via a rapid solution exchange system with 8 fine polyplastic tubings glued in a holder in parallel and located closely to the recorded cells. The current responses were normalized to the control, percent inhibition was calculated and sigmoidal dose-response curettes we're generated using XLFIT (IDBS, Surrey, UK) or Prism (GraphPad Software, LA Jola, Calif., US) to calculate IC50 values and Hill slopes using the following equation Y=Bottom+(Top−Bottom)/1+10{circumflex over (()}(Log EC50−X)−HillsSlope)). IC50 values are given in micromolar units.

The target in a further experiment is Cav3.2 (Homo sapiens (Human), UniProt O95180). The experiment in a line: Whole-cell voltage clamp recording, HEK293 cells expressing T-type channel Cav3.2. To be noted: holding potential −100 mV, depolarized to −30 mV for 100 ms, room temperature. As for the experimental part: as §1
A further experiment deals with Cav3.1 (Homo sapiens (Human), UniProt O43497). The experiment is described as follows: Whole-cell voltage clamp recording, HEK293 cells expressing T-type channel Cav3.1. To be noted: holding potential −100 mV, depolarized to −30 mV for 100 ms, room temperature. As for the experimental part: as §1
Cav3.1, sequence (O43497 whole entry): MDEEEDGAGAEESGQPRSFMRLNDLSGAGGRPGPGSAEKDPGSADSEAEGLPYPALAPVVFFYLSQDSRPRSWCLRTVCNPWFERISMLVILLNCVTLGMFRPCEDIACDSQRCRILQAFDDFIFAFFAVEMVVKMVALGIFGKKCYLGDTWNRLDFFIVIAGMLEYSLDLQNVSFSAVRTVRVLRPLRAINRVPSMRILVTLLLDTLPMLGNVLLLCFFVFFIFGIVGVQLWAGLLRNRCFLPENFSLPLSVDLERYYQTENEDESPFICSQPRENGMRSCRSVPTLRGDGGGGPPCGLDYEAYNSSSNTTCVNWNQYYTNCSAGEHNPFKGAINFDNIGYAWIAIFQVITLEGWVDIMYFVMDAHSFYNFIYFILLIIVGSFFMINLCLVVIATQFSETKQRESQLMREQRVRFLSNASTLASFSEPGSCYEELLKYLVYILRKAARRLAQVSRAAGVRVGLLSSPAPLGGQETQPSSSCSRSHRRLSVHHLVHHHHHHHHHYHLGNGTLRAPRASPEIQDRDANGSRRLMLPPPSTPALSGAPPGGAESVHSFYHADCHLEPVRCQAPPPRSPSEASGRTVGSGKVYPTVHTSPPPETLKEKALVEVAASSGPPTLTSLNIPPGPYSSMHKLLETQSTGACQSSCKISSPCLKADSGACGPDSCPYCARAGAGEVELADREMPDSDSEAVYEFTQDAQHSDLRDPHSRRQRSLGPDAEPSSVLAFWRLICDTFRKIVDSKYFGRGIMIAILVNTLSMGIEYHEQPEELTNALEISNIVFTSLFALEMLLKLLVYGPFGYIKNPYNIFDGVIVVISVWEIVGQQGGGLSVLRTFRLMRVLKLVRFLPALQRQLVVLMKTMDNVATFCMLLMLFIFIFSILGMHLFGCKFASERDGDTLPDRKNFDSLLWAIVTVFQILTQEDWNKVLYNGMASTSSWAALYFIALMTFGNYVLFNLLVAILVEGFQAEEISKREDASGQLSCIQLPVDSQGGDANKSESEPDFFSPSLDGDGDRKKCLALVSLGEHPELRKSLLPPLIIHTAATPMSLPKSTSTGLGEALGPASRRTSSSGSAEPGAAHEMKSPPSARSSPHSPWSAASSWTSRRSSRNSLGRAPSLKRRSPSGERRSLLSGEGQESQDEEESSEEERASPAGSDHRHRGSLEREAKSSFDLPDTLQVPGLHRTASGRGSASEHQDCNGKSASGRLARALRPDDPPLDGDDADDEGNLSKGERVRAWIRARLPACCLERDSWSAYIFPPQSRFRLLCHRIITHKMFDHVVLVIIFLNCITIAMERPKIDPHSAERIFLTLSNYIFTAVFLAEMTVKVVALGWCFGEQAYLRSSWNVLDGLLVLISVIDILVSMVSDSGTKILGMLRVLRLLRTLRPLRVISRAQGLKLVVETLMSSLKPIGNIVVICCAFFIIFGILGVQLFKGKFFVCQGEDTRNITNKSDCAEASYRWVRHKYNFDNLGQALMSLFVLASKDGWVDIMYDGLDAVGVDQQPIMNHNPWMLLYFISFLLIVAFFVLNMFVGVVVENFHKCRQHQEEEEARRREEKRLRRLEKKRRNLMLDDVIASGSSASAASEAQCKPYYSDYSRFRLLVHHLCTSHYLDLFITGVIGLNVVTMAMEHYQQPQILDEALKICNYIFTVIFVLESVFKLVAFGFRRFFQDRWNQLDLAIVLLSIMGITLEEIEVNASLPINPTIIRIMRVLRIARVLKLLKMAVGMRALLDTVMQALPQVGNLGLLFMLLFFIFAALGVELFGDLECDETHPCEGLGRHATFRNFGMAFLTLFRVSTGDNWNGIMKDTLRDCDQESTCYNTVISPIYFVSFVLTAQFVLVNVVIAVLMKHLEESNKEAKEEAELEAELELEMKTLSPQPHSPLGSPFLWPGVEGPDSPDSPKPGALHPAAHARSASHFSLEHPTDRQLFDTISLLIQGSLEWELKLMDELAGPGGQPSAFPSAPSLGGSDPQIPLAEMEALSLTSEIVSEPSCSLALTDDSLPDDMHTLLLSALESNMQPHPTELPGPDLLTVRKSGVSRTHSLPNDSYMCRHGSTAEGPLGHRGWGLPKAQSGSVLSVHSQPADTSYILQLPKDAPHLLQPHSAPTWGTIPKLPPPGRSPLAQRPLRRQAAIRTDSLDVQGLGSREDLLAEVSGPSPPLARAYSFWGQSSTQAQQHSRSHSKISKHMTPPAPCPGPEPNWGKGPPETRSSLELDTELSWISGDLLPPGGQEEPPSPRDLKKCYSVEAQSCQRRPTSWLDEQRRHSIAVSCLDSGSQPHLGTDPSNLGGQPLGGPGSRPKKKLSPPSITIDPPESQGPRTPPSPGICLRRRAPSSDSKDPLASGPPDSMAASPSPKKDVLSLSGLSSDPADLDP
Experiment [1] concerns Human Glioma cancer cell line U251. The experiment in a line: Cell Proliferation Assay by CCK-8 Reagent. To be noted: Homo sapiens, U-251, 72 h, U251 cells, 72 hours incubation, CCK-8, % viability vs vehicle control. Here is the method: Human Glioma cancer cell line U251 was maintained in DMEM (Gibco, Cat #10569-10) supplemented with 10% fetal bovine serum inactivated at 56° C. (Gibco, Cat #10082-147), 100 U/mL penicillin, and 100 μg/mL streptomycin (Gibco, Cat #15140-122) at 37° C. and 1% MEM non-essential amino acid (Sigma, Cat #M7145) in a humid atmosphere containing 5% CO2. The cells were seeded at 2.5×10^3 cells/well in a 96 well plate (BD falcon, Cat #353072) with 200 pt volume/well and kept in 37° C./5% CO2 incubator for 0/N incubation. The seeding density was optimized previously based on growth curve. On the next day, plated cells were incubated with each test compounds at eight different concentrations (100, 50, 25, 12.5, 6.25, 3.125, 1.5 and 0.78) in triplicates. DMSO was used as a Vehicle control and Culture medium was used as blank control for the assay in each plate. The percentage of DMSO was kept uniform across the plate as <1%. The compound treated cells were incubated in 37° C./5% CO2 incubator for 72 hours. After incubation period, […] CCK-8 reagent (Dojindo, Cat #CK04) was added in all the wells and plate was kept in 37° C./5% CO2 incubator for 3 hours. After CCK-8 incubation, absorbance was measured @ 450 nm using Spectrophotometer (BMG, Omega Polar Star). % Viability values at each concentration were calculated with respect to Vehicle control and EC50 values were calculated using graph pad prism software and are shown in Table A.

Cav3.3, sequence (Q9P0X4 whole entry, species assumed): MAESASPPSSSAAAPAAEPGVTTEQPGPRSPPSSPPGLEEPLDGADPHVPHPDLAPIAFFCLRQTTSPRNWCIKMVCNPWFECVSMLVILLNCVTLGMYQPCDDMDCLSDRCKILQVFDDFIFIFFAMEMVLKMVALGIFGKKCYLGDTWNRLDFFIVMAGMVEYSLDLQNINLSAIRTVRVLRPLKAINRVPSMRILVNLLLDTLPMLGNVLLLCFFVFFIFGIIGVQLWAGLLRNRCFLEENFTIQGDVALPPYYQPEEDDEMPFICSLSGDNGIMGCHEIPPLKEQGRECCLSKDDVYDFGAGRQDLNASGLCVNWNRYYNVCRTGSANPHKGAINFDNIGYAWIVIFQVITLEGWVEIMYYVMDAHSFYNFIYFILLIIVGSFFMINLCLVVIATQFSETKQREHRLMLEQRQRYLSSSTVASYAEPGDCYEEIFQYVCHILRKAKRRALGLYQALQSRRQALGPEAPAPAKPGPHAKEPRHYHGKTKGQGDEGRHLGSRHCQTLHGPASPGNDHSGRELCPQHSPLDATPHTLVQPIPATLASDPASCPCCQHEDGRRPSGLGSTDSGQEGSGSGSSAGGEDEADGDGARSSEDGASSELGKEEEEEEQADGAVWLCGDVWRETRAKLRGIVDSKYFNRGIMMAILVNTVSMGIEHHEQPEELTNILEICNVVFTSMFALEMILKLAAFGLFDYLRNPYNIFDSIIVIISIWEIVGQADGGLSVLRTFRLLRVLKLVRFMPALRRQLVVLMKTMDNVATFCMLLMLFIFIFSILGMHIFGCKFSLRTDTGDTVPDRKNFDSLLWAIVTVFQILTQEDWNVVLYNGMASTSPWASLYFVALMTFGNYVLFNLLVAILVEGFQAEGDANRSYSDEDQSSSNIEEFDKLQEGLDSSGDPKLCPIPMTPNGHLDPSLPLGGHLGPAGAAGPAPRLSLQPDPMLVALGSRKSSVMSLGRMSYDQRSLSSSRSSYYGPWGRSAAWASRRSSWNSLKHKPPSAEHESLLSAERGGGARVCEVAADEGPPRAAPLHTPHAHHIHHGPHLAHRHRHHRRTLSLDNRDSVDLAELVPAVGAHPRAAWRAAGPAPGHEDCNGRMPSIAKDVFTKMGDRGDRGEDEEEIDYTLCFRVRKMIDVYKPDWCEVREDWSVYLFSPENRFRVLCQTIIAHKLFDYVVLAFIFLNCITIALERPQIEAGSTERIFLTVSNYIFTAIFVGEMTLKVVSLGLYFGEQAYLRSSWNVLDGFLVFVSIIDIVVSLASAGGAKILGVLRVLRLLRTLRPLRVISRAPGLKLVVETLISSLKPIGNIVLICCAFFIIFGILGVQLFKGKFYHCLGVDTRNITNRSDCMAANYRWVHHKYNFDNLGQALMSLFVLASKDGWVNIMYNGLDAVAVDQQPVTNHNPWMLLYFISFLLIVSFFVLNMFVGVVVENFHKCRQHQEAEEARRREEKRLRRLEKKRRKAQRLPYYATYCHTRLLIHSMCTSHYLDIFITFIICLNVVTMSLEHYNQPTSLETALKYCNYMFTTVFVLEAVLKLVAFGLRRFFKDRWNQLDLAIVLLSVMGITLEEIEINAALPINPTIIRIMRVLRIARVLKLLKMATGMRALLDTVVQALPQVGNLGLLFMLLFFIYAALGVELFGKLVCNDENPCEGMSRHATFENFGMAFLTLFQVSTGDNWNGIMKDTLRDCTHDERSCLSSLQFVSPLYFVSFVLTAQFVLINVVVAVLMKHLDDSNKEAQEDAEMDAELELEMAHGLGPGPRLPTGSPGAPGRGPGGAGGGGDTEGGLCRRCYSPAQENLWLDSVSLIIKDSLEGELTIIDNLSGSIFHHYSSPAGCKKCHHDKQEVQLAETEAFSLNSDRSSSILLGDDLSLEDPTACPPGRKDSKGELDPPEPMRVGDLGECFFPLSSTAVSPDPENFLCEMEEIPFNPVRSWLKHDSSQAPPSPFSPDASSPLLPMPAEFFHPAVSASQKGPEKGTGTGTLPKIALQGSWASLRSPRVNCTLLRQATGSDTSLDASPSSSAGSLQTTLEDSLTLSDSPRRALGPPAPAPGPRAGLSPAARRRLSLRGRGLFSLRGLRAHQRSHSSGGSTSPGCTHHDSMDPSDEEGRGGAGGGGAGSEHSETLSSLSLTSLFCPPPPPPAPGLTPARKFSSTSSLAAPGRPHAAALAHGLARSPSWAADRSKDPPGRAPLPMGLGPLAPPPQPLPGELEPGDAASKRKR

In the case of `Cc1ccc(C)c2[nH]c(CCCN(C)CC[C@@]3(OC(=O)N4CCOCC4)CCc4cc(F)ccc4[C@@H]3C(C)C)nc12` [Example 15, (1S,2S)-2-(2-((3-(4,7-Dimethyl-1H-benzo[d]imidazol-2-yl)propyl)(methyl)amino)ethyl)-6-fluoro-1-isopropyl-1,2,3,4-tetrahydronaphthalen-2-yl morpholine-4-carboxylate], the IC50 against Cav3.3 stood at 212 nM; on Cav3.2, 335 nM; against Cav3.1 it was 139 nM. This compound yielded an EC50 in experiment [1] of 4.8 µM.
